Data from PubChem BioAssay (NCI).
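The compound was tested at five concentrations on cells cultured in 96-well plates, with a 48-hour exposure period. The concentration for full growth arrest is given as TGI.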

Key:
Assay in all cases: NCI anticancer screen, dose series, 48 h
A549 NSCLC = system: A549 NSCLC
DU-145 prostate = system: DU-145 prostate
HS 578T breast = system: HS 578T breast
KM12 colon = system: KM12 colon
M14 melanoma = system: M14 melanoma
MDA-MB-231 breast = system: MDA-MB-231 breast
NCI-H23 lung = system: NCI-H23 lung
SF-295 CNS = system: SF-295 CNS
SNB-19 CNS = system: SNB-19 CNS
UO-31 renal = system: UO-31 renal

SMILES | TGI (A549 NSCLC) | TGI (DU-145 prostate) | TGI (HS 578T breast) | TGI (KM12 colon) | TGI (M14 melanoma) | TGI (MDA-MB-231 breast) | TGI (NCI-H23 lung) | TGI (SF-295 CNS) | TGI (SNB-19 CNS) | TGI (UO-31 renal)
CC1(C)N=C(/C(Cl)=[N+](/[O-])C(=O)c2ccc(F)cc2)C(C)(C)N1O | > 100 µM | 78.7 µM | 57.1 µM | 67.8 µM | 30.3 µM | 33.6 µM | 42.8 µM | 78.4 µM | > 100 µM | 37.9 µM
Cc1cc(N(CCC#N)CCC#N)ccc1/C(N=Nc1ccc(Cl)cc1)=N\NC(=O)c1ccccc1 | > 100 µM | > 100 µM | 55 µM | > 100 µM | > 100 µM | > 100 µM | > 100 µM | 77.6 µM | > 100 µM | > 100 µM
CCOC(=O)c1c2ccccc2n2c(N)c(C(N)=O)nnc12 | > 100 µM | > 100 µM | 35.5 µM | > 100 µM | > 100 µM | 88.6 µM | 66.2 µM | > 100 µM | 91.8 µM | > 100 µM
COc1ccc(N2C(=O)C3c4[nH]c5ccccc5c4C4CCC(C(C)(C)C)CC4C3C2=O)c(C)c1 (stereo not given) | > 100 µM | > 100 µM | > 100 µM | > 100 µM | > 100 µM | > 100 µM | > 100 µM | > 100 µM | > 100 µM | > 100 µM
C=C1c2nc3ccccc3n2C=C(c2ccccc2)N1c1ccc([N+](=O)[O-])cc1 | 13.5 µM | > 74.7 µM | 30.3 µM | 13.8 µM | > 60.4 µM | 14.2 µM | 38.5 µM | 18.5 µM | 24.4 µM | 16 µM
COc1cc(/C=C2\S/C(=N/Nc3nc(-c4ccc(Br)cc4)cs3)NC2=O)cc(OC)c1OC | 56.7 µM | 52.4 µM | 89.5 µM | 32.8 µM | 41.8 µM | 47.6 µM | 25.7 µM | 36.6 µM | 67.7 µM | 16.7 µM
O=[N+]([O-])/C(C(Cl)=C(Cl)Cl)=C(\SCc1ccccc1)N1CCCCC1 | > 100 µM | > 100 µM | > 100 µM | 87.1 µM | 45.6 µM | 37.3 µM | 42.1 µM | 81.9 µM | > 100 µM | 56.5 µM
NC(=O)C(c1ccccc1)N1OC2C(=O)N(c3ccccc3)C(=O)C2C1c1c2ccccc2c(Cl)c2ccccc12 (stereo not given) | > 100 µM | > 100 µM | > 100 µM | > 100 µM | > 100 µM | > 100 µM | > 100 µM | > 100 µM | > 100 µM | > 100 µM
C(/c1ccco1)=c1/nc(-c2ccccc2)n2c1nc1ccccc12 | > 100 µM | > 100 µM | > 100 µM | > 100 µM | > 100 µM | > 100 µM | > 100 µM | > 100 µM | > 100 µM | > 100 µM
O=c1[nH]cc(N=Cc2cc(Cl)cc(Cl)c2O)c(=O)[nH]1 | > 100 µM | 60.4 µM | 67.1 µM | 85 µM | 47.8 µM | > 100 µM | 75.3 µM | 96.1 µM | > 100 µM | > 100 µM
C=C(Br)C(C)(Cl)CCC(Br)C(C)(C)Cl (stereo not given) | > 100 µM | > 100 µM | > 100 µM | > 100 µM | > 100 µM | > 100 µM | > 100 µM | > 100 µM | > 100 µM | > 100 µM
CCCN=C1CCN(Cc2ccccc2)c2ccccc2N1 | > 100 µM | > 100 µM | 36.2 µM | 64.6 µM | 31.3 µM | 59.9 µM | 41.5 µM | 95.3 µM | > 100 µM | > 100 µM
CC(C)C1/C(=N/O)CC(c2ccccc2)N(N=O)C1c1ccccc1 (stereo not given) | > 100 µM | > 100 µM | > 100 µM | > 100 µM | > 100 µM | > 100 µM | > 100 µM | > 100 µM | > 100 µM | 82.9 µM
Clc1cc(OC2C3CC4CC(C3)CC2C4)nc(Cl)n1 (stereo not given) | 95.9 µM | 39.9 µM | 42.9 µM | 39.1 µM | 32.5 µM | 27.5 µM | 31 µM | 37.7 µM | > 100 µM | 10.8 µM
CC1=CC2C(O1)C1C(=O)C=CC(=O)C1=CC2[N+](=O)[O-] (stereo not given) | 43.5 µM | > 55.9 µM | > 58 µM | > 55.9 µM | 29.4 µM | 38.9 µM | 48.3 µM | 34.5 µM | > 72.4 µM | 10.4 µM
Cc1cccc(/C=N/NC(=S)Nc2ccccc2)n1 | > 100 µM | > 67.7 µM | > 100 µM | > 100 µM | 8.05 µM | > 26.1 µM | > 72.7 µM | > 100 µM | 98.3 µM | > 31.2 µM
